Test: QCM-D analysis of peptide adsorption and Cu binding
Format: physicochemical
Conditions: for loaded mass/area of the peptide: 1.5 mg/mL in Tris buffer pH 8.5, after washing, Sauerbrey equation, 5th overtones
Method: Quartz Crystal Microbalance with Dissipation (QCM-D) Analysis: The peptides' adsorption and the metal-binding capabilities were studied using QCM-D (Q-sense, Biolin Scientific). The measurements were performed in a flow module E1 system with SiO2 sensors with a fundamental resonant frequency of 5 MHz (Qsense). The sensors were cleaned according to the supplier instructions. The experiments were performed under flow-through conditions using a digital peristaltic pump (IsmaTec Peristaltic Pump, IDEX). The peptide (1.5 mg/mL), control peptide (1.5 mg/mL), and CuCl2 (0.8 mg/mL) were dissolved in a filtered Tris buffer solution (pH=8.5, 10 mM). The solutions were injected circularly into the sensor crystal chamber at a rate of 0.1 mL/min. The peptide solution flowed for -4 h, the control peptide for −80 min, and the CuCl2 solution for -2 h. Between and after the coatings, the sensor was washed with the same Tris buffer solution. The adsorbed mass was calculated according to the Sauerbrey equation using the 5th overtones.

Substance | loaded mass/area of the peptide | loaded mass/area of Cu bound to the peptide layer (Cu(II) solution (CuCl2 0.8 mg/mL) after washing with the buffer) | ratio of Cu ions per each peptide molecule (from loaded mass/area values)
NH2-(Phe)2-(His)6-OH [reference compound] | ~12 ng/cm^2 | – | –
NH2-DOPA-(Phe)2-(His)6-OH [peptide] | ~96 ng/cm^2 | ~9 ng/cm^2 | ~2

— patent publication US20240298636A1, “ANTIMICROBIAL AGENTS AND FILMS MADE THEREFROM” (YISSUM RESEARCH DEVELOPMENT COMPANY OF THE HEBREW …, priority 2021, published 2024)
